# Measurements from ChEMBL document CHEMBL4673302, “Efficient synthesis and antitumor evaluation of 4-aminomethyl-N-arylpyrazoles: Discovery of potent and selective agents for ovarian cancer” (Bioorg Med Chem, 2021).
# Assays:
# HaCaT = experiment: Cytotoxicity against human HaCaT cells assessed as cell growth inhibition measured after 48 hrs by sulforhodamine B assay; type: cell-based; conditions: hacat, 48 h
# K562 = experiment: Anticancer activity against human K562 cells assessed as cell growth inhibition measured after 48 hrs by sulforhodamine B assay; type: functional; conditions: 48 h
# HT-29 = experiment: Anticancer activity against human HT-29 cells assessed as cell growth inhibition measured after 48 hrs by sulforhodamine B assay; type: functional
# OVCAR-3 = experiment: Anticancer activity against human OVCAR-3 cells assessed as cell growth inhibition measured after 48 hrs by sulforhodamine B assay; type: functional; conditions: 48 h
# MCF7 = experiment: Anticancer activity against human MCF7 cells assessed as cell growth inhibition measured after 48 hrs by sulforhodamine B assay; type: functional
# U-251 = experiment: Anticancer activity against human U-251 cells assessed as cell growth inhibition measured after 48 hrs by sulforhodamine B assay; type: functional
# 786-0 = experiment: Anticancer activity against human 786-0 cells assessed as cell growth inhibition measured after 48 hrs by sulforhodamine B assay; type: functional
# PC-3 = experiment: Anticancer activity against human PC-3 cells assessed as cell growth inhibition measured after 48 hrs by sulforhodamine B assay; type: functional
# NCI-H460 = experiment: Anticancer activity against human NCI-H460 cells assessed as cell growth inhibition measured after 48 hrs by sulforhodamine B assay; type: functional
SMILES,GI50 (HaCaT),GI50 (K562),GI50 (HT-29; 48 h),GI50 (OVCAR-3),GI50 (MCF7; 48 h),GI50 (U-251; 48 h),GI50 (786-0; 48 h),GI50 (PC-3; 48 h),GI50 (NCI-H460; 48 h),"GI50 (MCF7; Homo sapiens, MCF7, 48 h)","GI50 (U-251; Homo sapiens, U-251, 48 h)","GI50 (786-0; Homo sapiens, 786-0, 48 h)","GI50 (PC-3; Homo sapiens, PC-3, 48 h)","GI50 (NCI-H460; Homo sapiens, NCI-H460, 48 h)","GI50 (HT-29; Homo sapiens, HT-29, 48 h)"
CCOC(=O)c1nn(-c2ccc(Cl)cc2)c(-c2ccc(Cl)cc2)c1CNC(C)(C)C [listing 1 of 2 here],> 520 µM,> 520 µM,> 520 µM,> 520 µM,> 520 µM,> 520 µM,> 520 µM,> 520 µM,> 520 µM,–,–,–,–,–,–
CCOC(=O)c1nn(-c2ccccc2)c(-c2ccc(Cl)cc2)c1CNC(C)(C)C,63.5 µM,57.6 µM,58.5 µM,0.134 µM,72.4 µM,73.8 µM,86.7 µM,28.6 µM,69.2 µM,–,–,–,–,–,–
CCOC(=O)c1nn(-c2ccc(Cl)cc2)c(-c2ccccc2)c1CNC(C)(C)C,> 559 µM,> 559 µM,> 559 µM,> 559 µM,> 559 µM,> 559 µM,> 559 µM,> 559 µM,> 559 µM,–,–,–,–,–,–
CCOC(=O)c1nn(-c2ccccc2)c(-c2ccc(OC)cc2)c1CNC(C)(C)C [listing 1 of 2 here],19.2 µM,29.8 µM,44.2 µM,17.1 µM,244 µM,527 µM,166 µM,245 µM,148 µM,–,–,–,–,–,–
CCOC(=O)c1nn(-c2ccc(Cl)cc2)c(-c2ccc(Cl)cc2)c1CNC(C)(C)C [listing 2 of 2 here],2.9 µM,11.2 µM,57.7 µM,21.6 µM,120 µM,6.4 µM,73.7 µM,196 µM,144 µM,–,–,–,–,–,–
CCOC(=O)c1nn(-c2ccc(Cl)cc2)c(-c2ccc(F)cc2)c1CNC(C)(C)C [listing 1 of 2 here],24.7 µM,78.5 µM,87.1 µM,159 µM,–,–,–,–,–,> 582 µM,519 µM,> 582 µM,405 µM,344 µM,–
CCOC(=O)c1nn(-c2ccccc2)c(-c2ccc(OC)cc2)c1CNC(C)(C)C [listing 2 of 2 here],68.3 µM,66.6 µM,–,0.047 µM,116 µM,134 µM,537 µM,530 µM,–,–,–,–,–,119 µM,61.3 µM
CCOC(=O)c1nn(-c2ccc(Cl)cc2)c(-c2ccc(Br)cc2)c1CNC(C)(C)C,> 476 µM,> 476 µM,> 476 µM,> 476 µM,> 476 µM,> 476 µM,> 476 µM,> 476 µM,> 476 µM,–,–,–,–,–,–
CCOC(=O)c1nn(-c2ccccc2)c(-c2ccc(C)cc2)c1CNC(C)(C)C,72.1 µM,11.3 µM,68.1 µM,0.054 µM,78.2 µM,65.4 µM,86.1 µM,59.9 µM,75.2 µM,–,–,–,–,–,–
CCOC(=O)c1nn(-c2ccccc2)c(-c2ccc(Br)cc2)c1CNC(C)(C)C,61.7 µM,22 µM,21.8 µM,2.91 µM,74.2 µM,71.9 µM,83.9 µM,15.9 µM,118 µM,–,–,–,–,–,–
CCOC(=O)c1nn(-c2ccc(Cl)cc2)c(-c2ccc(F)cc2)c1CNC(C)(C)C [listing 2 of 2 here],> 538 µM,> 538 µM,> 538 µM,> 538 µM,> 538 µM,> 538 µM,> 538 µM,> 538 µM,> 538 µM,–,–,–,–,–,–
CCOC(=O)c1nn(-c2ccccc2)c(-c2ccccc2)c1CNC(C)(C)C,13.3 µM,113 µM,94.6 µM,195 µM,504 µM,440 µM,42.4 µM,91.7 µM,195 µM,–,–,–,–,–,–
